Where two headings read alike, the source gives them in different places.
Columns and labels:
[1] = test system: H2444; assay: Dose response study (Alamar Blue), H2444; type: cell-based; conditions: Homo sapiens, NCI-H2444, 48 h, read-out: IC50 H2444
Procedure: (§1) Dose response studies against 34 compounds from the pyridazinone and phenylfuran-carboxamide class were conducted. […] In addition, Tarceva was included in these dose response studies.
(§2) The dose response studies were done with the following standard procedure. First, the cells were counted and dispensed at 250 cells/well into 384-well microplates with compound. The cells were incubated for 48 hours at 37 C to complete treatment, and then alamar blue was added for an additional 48 hours. Finally, alamar blue reduction was measured and the data was loaded into ORIS, our data screening acquisition platform.

[2] = test system: H3255; assay: Non Small Cell Lung Cancer proliferation assay (Alamar Blue reduction), H3255; type: cell-based, human; conditions: for IC50 / inhibition at 10 µM: Homo sapiens; for inhibition at 10 µM: NCI-H3255, primary screening, read-out: PRIMARY HTS [%] H3255 (percentage inhibition); for inhibition at 10 µM / CONFIRMATION [%] 3255: 10 μM compound in 1% DMSO (v/v); for CONFIRMATION [%] 3255: percentage inhibition
Method in brief: (§3)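 Human NSCLC cells were seeded at 250 cells/well with compound at a final 1% DMSO and treated for 48 hours at 37° C. 1% DMSO served as the high control.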

[3] = test system: HPL1D (human peripheral lung epithelial) cell line; assay: Cell proliferation / dose response (Alamar Blue), HPL1D; type: cell-based; conditions: read-out: IC50 HPL1D
Procedure: WI-38: human lung fibroblast cell line. […] WT: wildtype; WT*: over-expressed wildtype. Dose response studies against 34 compounds from the pyridazinone and phenylfuran-carboxamide class were conducted. […] In addition, Tarceva was included in these dose response studies. The dose response studies were done with the following standard procedure. […] The cells were incubated for 48 hours at 37 C to complete treatment, and then alamar blue was added for an additional 48 hours. Finally, alamar blue reduction was measured and the data was loaded into ORIS, our data screening acquisition platform.

[4] = test system: H460; assay: Dose response study (Alamar Blue), H460; type: cell-based; conditions: Homo sapiens, read-out: IC50 H460
Procedure: as §1, §2

[5] = test system: H1650; assay: Non Small Cell Lung Cancer proliferation assay (Alamar Blue reduction), H1650; type: cell-based, human; conditions: for IC50 / inhibition at 10 µM: Homo sapiens; for inhibition at 10 µM: NCI-H1650, primary screening, read-out: PRIMARY HTS [%] H1650 (percentage inhibition); for inhibition at 10 µM / CONFIRMATION [%] 1650: 10 μM compound in 1% DMSO (v/v); for CONFIRMATION [%] 1650: percentage inhibition
Method in brief: as §3

[6] = test system: H2122; assay: Dose response study (Alamar Blue), H2122; type: cell-based; conditions: Homo sapiens, read-out: IC50 H2122
Procedure: as §1, §2

[7] = test system: A549; assay: Dose response study (Alamar Blue), A549; type: cell-based; conditions: Homo sapiens, read-out: IC50 A549
Procedure: as §1, §2

[8] = test system: PC9; assay: Dose response study (Alamar Blue), PC9; type: cell-based; conditions: Homo sapiens, read-out: IC50 PC9
Procedure: as §1, §2

[9] = test system: H820; assay: Dose response study (Alamar Blue), H820; type: cell-based; conditions: Homo sapiens, read-out: IC50 H820
Procedure: as §1, §2

[10] = test system: H2030; assay: Non Small Cell Lung Cancer proliferation assay (Alamar Blue reduction), H2030; type: cell-based, human; conditions: for IC50 / inhibition at 10 µM: Homo sapiens; for inhibition at 10 µM: NCI-H2030, primary screening, read-out: PRIMARY HTS [%] H2030 (percentage inhibition); for inhibition at 10 µM / CONFIRMATION [%] 2030: 10 μM compound in 1% DMSO (v/v); for CONFIRMATION [%] 2030: percentage inhibition
Method in brief: as §3

[11] = test system: H23; assay: Dose response study (Alamar Blue), H23; type: cell-based; conditions: Homo sapiens, read-out: IC50 H23
Procedure: as §1, §2

[12] = test system: H358; assay: Non Small Cell Lung Cancer proliferation assay (Alamar Blue reduction), H358; type: cell-based; conditions: Homo sapiens
Procedure: (§4) These cells have a doubling time of 1-2 days. All cell types are adherent and grow in colonies. The cells should be kept at a density between 50,000 cells/mL -500,000 cells/mL to provide for optimum growth and adequate nutrition. The cell line should be maintained at 37° C. in a humidified atmosphere with 5% CO2 in a sterile cell culture incubator.
(§5) Non Small Cell Lung Cancer Proliferation Assay.
(§6) High Controls for this assay are made by treating Non Small Cell Lung Cancer cells with 5 ul of 10% DMSO. [Final concentration in this assay is 1% DMSO].
(§7) Important Note: All compounds for testing in this assay should be done at the final concentration of 1% DMSO.
(§8) After addition, the cells are placed in cell culture incubator at 37° C. for 48 hours for complete treatment.
(§9) After drug treatment, cytotoxicity is measured by Alamar Blue reduction.
(§10) The cells are incubated for 48 hours at 37° C. to complete the Alamar Blue reduction.
(§11) The final step in the assay is to measure the amount of Alamar Blue reduction. […] The Alamar Blue fluorescence is measured at an excitation of 530 nm and emission of 590 nm.
(§12) For the NSCLC project, the cell based assay was screened against a small molecule library of approximately 200,000 compounds. The compound library is stored in our automated robotic freezer (Biophile) at −20° C. in 100% DMSO. Compound freeze and thaw cycles are kept to a minimum. […] This assay was performed on a fully automated linear track robotic platform (CRS F3 Robot System, Thermo Electron Corp., Ontario, Canada) utilizing several integrated peripherals for plate handling, liquid dispensing, and readout detection. […] The microplates are then placed at 37° C. for 48 hours to complete treatment of cells with compounds. Next, 5 ul of alamar blue was added using a liquid dispenser (Flexprop Precision Dispenser, Perkin Elmer, Mass., USA) and incubated for 48 hours at 37° C. The alamar blue prompt fluorescence was measured on Victor V (Victor^3 V, Perkin Elmer, Mass., USA) and output data files were loaded into ORIS (Oncology Research Informatics System, MSKCC, NY, USA), a screening data acquisition and analysis platform.
as §2

[13] = test system: H1734; assay: Non Small Cell Lung Cancer proliferation assay (Alamar Blue reduction), H1734; type: cell-based, human; conditions: Homo sapiens
Procedure: as §4, §5, §6, §7, §8, §9, §10, §11, §12, §2

[14] = NCI-H3255, 48 h, H3255, 12 point doubling dilution 10 uM to 5 nM, 48 h treatment, alamar blue additional 48 h, read-out: IC50 H3255
[15] = NCI-H3255, phenylfuran-2-carboxamide SAR summary, read-out: IC50(uM) 3255
[16] = NCI-H1650, 48 h, H1650, 12 point doubling dilution 10 uM to 5 nM, 48 h treatment, alamar blue additional 48 h, read-out: IC50 H1650
[17] = NCI-H1650, phenylfuran-2-carboxamide SAR summary, read-out: IC50(uM) 1650
[18] = NCI-H2030, 48 h, H2030, 12 point doubling dilution 10 uM to 5 nM, 48 h treatment, alamar blue additional 48 h, read-out: IC50 H2030
[19] = NCI-H2030, phenylfuran-2-carboxamide SAR summary, read-out: IC50(uM) 2030
[20] = NCI-H358, 48 h, H358, 12 point doubling dilution 10 uM to 5 nM, 48 h treatment, alamar blue additional 48 h, read-out: IC50 H358
[21] = NCI-H1734, 48 h, H1734, 12 point doubling dilution 10 uM to 5 nM, 48 h treatment, alamar blue additional 48 h, read-out: IC50 H1734

| Structure (SMILES) | IC50 [1] [nM] | IC50 [2, 14] [µM] | IC50 [2, 15] [µM] | inhibition at 10 µM ([2]; H3255) [%] | CONFIRMATION [%] 3255 [2] [%] | IC50 ([3]; 48 h) [nM] | IC50 ([4]; NCI-H460, 48 h) [nM] | IC50 [5, 16] [µM] | IC50 [5, 17] [µM] | inhibition at 10 µM ([5]; H1650) [%] | CONFIRMATION [%] 1650 [5] [%] | IC50 ([6]; NCI-H2122, 48 h) [nM] | IC50 ([7]; A549, 48 h) [nM] | IC50 ([8]; PC-9, 48 h) [nM] | IC50 ([9]; NCI-H820, 48 h) [nM] | IC50 [10, 18] [µM] | IC50 [10, 19] [µM] | inhibition at 10 µM ([10]; H2030) [%] | CONFIRMATION [%] 2030 [10] [%] | IC50 ([11]; NCI-H23, 48 h) [nM] | other results |
| --- | --- | --- | --- | --- | --- | --- | --- | --- | --- | --- | --- | --- | --- | --- | --- | --- | --- | --- | --- | --- | --- |
| Cc1ccc(NC(=O)c2ccc([N+](=O)[O-])o2)cc1 [compound 98697] | 4790 | 2.72 | 0.91 | 83 | 130 | > 10000 | 2200 | 0.6 | 0.44 | 103 | 136 | 5200 | 1810 | 2170 | 3530 | 1.18 | 1.06 | 62 | 101 | 910 | IC50 [12, 20]: 1.2 µM; IC50 [13, 21]: 4.42 µM |
| O=C(Nc1ccc(Cl)cc1)c1ccc([N+](=O)[O-])o1 [compound 98698, 5-nitro-furan-2-carboxylic acid (4-chloro-phenyl)-amide] | 2430 | 1.77 | 0.95 | 20 | 118 | > 10000 | 1620 | 0.47 | 0.38 | 101 | 133 | 3090 | 1330 | 1580 | 1830 | 0.91 | 1.12 | 17 | 98 | 600 | IC50 [12, 20]: 0.81 µM; IC50 [13, 21]: 3.47 µM |
| CCCCc1cccc(-n2ncc(Cl)c(Cl)c2=O)c1 [compound 267063] | – | 8.35 | – | – | – | – | – | > 10 | – | – | – | – | – | – | – | 6.43 | – | – | – | – | IC50 ([2]; NCI-H3255, dose response 10 M to 5 nM, IC50, read-out: Dose Response (uM) H3255): 3.89 µM; IC50 ([3]; HPL1D, 12 point doubling dilution 10 uM to 5 nM, 48 h treatment, alamar blue additional 48 h): 7040 nM; IC50 ([4]; NCI-H460, H460, 12 point doubling dilution 10 uM to 5 nM, 48 h treatment, alamar blue additional 48 h): > 10000 nM; IC50 ([5]; NCI-H1650, dose response 10 M to 5 nM, IC50, read-out: Dose Response (uM) H1650): 5.82 µM; IC50 ([6]; NCI-H2122, H2122, 12 point doubling dilution 10 uM to 5 nM, 48 h treatment, alamar blue additional 48 h): > 10000 nM; IC50 ([7]; A549, 12 point doubling dilution 10 uM to 5 nM, 48 h treatment, alamar blue additional 48 h): > 10000 nM; IC50 ([8]; PC-9, PC9, 12 point doubling dilution 10 uM to 5 nM, 48 h treatment, alamar blue additional 48 h): 8890 nM; IC50 ([9]; NCI-H820, H820, 12 point doubling dilution 10 uM to 5 nM, 48 h treatment, alamar blue additional 48 h): 6240 nM; IC50 ([10]; NCI-H2030, dose response 10 M to 5 nM, IC50, read-out: Dose Response (uM) H2030): 2.75 µM; IC50 ([11]; NCI-H23, H23, 12 point doubling dilution 10 uM to 5 nM, 48 h treatment, alamar blue additional 48 h): 5470 nM; IC50 ([12]; NCI-H358, H358, 12 point doubling dilution 10 uM to 5 nM, 48 h treatment, alamar blue additional 48 h, read-out: IC50 H358): 6.66 µM; IC50 ([12]; NCI-H358, read-out: Dose Response (uM) H358): 0.76 µM; IC50 ([13]; NCI-H1734, H1734, 12 point doubling dilution 10 uM to 5 nM, 48 h treatment, alamar blue additional 48 h, read-out: IC50 H1734): > 10 µM; IC50 ([13]; NCI-H1734, read-out: Dose Response (uM) H1734): 3.25 µM |
